In PubChem BioAssay AID248 (DTP/NCI, 2004):
“And” between values parts separate entries of the source, which are not always exact repeats. Equal values may be shown once. Inconclusive results and toxic doses are left out. Rule as the data show it: active = T/C of 150% or more; inactive = T/C below 125%.

System: L1210 leukemia ip in BDF1 mice, survival T/C
Experiment: NCI In Vivo Anticancer Drug Screen. Data for tumor model L1210 Leukemia (intraperitoneal) in B6D2F1 (BDF1) mice
Conditions: endpoint: mean survival time, higher = longer survival
Procedure, shortened: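 In this screen, tumor-bearing mice given compound are compared to those given vehicle, and their survival values are reported as a treated-to-control quotient.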

[1] = dose: 100.0 mg/kg/injection, schedule: Q04DX003 (ip), vehicle: saline with Tween-80
[2] = dose: 200.0 mg/kg/injection, schedule: Q04DX003 (ip), vehicle: saline with Tween-80
[3] = dose: 400.0 mg/kg/injection, schedule: Q04DX003 (ip), vehicle: saline with Tween-80
[4] = dose: 400.0 mg/kg/injection, schedule: Q04DX002 (ip), vehicle: saline with Tween-80
[5] = dose: 100.0 mg/kg/injection, schedule: Q04DX003 (ip), vehicle: Klucel (hydroxypropylcellulose) (HPC)
[6] = dose: 200.0 mg/kg/injection, schedule: Q04DX003 (ip), vehicle: Klucel (hydroxypropylcellulose) (HPC)
[7] = dose: 100.0 mg/kg/injection, schedule: Q04DX002 (ip), vehicle: saline
[8] = dose: 200.0 mg/kg/injection, schedule: Q04DX002 (ip), vehicle: saline
[9] = dose: 400.0 mg/kg/injection, schedule: Q04DX002 (ip), vehicle: saline
[10] = dose: 400.0 mg/kg/injection, schedule: Q04DX003 (ip), vehicle: Klucel (hydroxypropylcellulose) (HPC)

Measured: T/C

Cc1cc(O)cc(C)c1Cl
inactive: dose: 100.0 mg/kg/injection, schedule: Q01DX009 (ip), vehicle: saline with Tween-80 91 % of control | [1] 92 % of control | dose: 200.0 mg/kg/injection, schedule: Q01DX009 (ip), vehicle: saline with Tween-80 92 % of control | [2] 96 % of control | dose: 400.0 mg/kg/injection, schedule: Q01DX009 (ip), vehicle: saline with Tween-80 89 % of control | [3] 96 % of control

CCOC(=O)C(C(C)=O)C(c1ccc(N(C)C)cc1)C(C(C)=O)C(=O)OCC (stereo not drawn)
inactive: dose: 25.6 mg/kg/injection, schedule: Q04DX002 (ip), vehicle: saline with Tween-80 97 % of control | dose: 64.0 mg/kg/injection, schedule: Q04DX002 (ip), vehicle: saline with Tween-80 93 % of control | [1] 89 % of control | dose: 160.0 mg/kg/injection, schedule: Q04DX002 (ip), vehicle: saline with Tween-80 93 % of control | [2] 92 % of control | [4] 89 % of control | [3] 95 % of control

O=C(O)C1CC=CCC1c1ccccc1 (stereo not drawn)
inactive: dose: 100.0 mg/kg/injection, schedule: Q04DX003 (ip), vehicle: other 96 % of control | dose: 200.0 mg/kg/injection, schedule: Q04DX003 (ip), vehicle: other 96 % of control | dose: 400.0 mg/kg/injection, schedule: Q04DX003 (ip), vehicle: other 101 % of control

Nc1cc2ccncc2c2ccccc12
inactive: dose: 50.0 mg/kg/injection, schedule: Q01DX009 (ip), vehicle: saline sonified 98 % of control | dose: 100.0 mg/kg/injection, schedule: Q01DX009 (ip), vehicle: saline sonified 104 % of control | [5] 97 % of control | dose: 200.0 mg/kg/injection, schedule: Q01DX009 (ip), vehicle: saline sonified 106 % of control | [6] 108 % of control

Nc1ccc2c(c1)-n1cccc1C2=O
inactive: [5] 104 % of control | [6] 101 % of control

CNC(=S)Nc1ccc(C)c(Cl)c1
inactive: [7] 104 % of control | [8] 108 % of control | [9] 106 % of control

COC(C)=C1c2ccccc2-c2ccccc21
inactive: dose: 100.0 mg/kg/injection, schedule: Q01DX001 (ip), vehicle: Klucel (hydroxypropylcellulose) (HPC) 98 % of control | dose: 200.0 mg/kg/injection, schedule: Q01DX001 (ip), vehicle: Klucel (hydroxypropylcellulose) (HPC) 99 % of control | dose: 400.0 mg/kg/injection, schedule: Q01DX001 (ip), vehicle: Klucel (hydroxypropylcellulose) (HPC) 94 % of control

NNC(=O)CNc1cccc(F)c1
inactive: dose: 100.0 mg/kg/injection, schedule: Q04DX002 (ip), vehicle: Klucel (hydroxypropylcellulose) (HPC) 105 % of control | dose: 200.0 mg/kg/injection, schedule: Q04DX002 (ip), vehicle: Klucel (hydroxypropylcellulose) (HPC) 119 % of control

O=C(O)CCC1CC1C(=O)c1ccccc1 (stereo not drawn)
inactive: dose: 50.0 mg/kg/injection, schedule: Q04DX003 (ip), vehicle: Klucel (hydroxypropylcellulose) (HPC) 102 % of control | [5] 100 % of control | [6] 103 % of control | [10] 103 % of control

COC(=O)C1(Br)CCC1(Br)C(=O)OC (stereo not drawn)
inactive: dose: 100.0 mg/kg/injection, schedule: Q01DX009 (ip), vehicle: saline 100 % of control | dose: 100.0 mg/kg/injection, schedule: Q04DX003 (ip), vehicle: saline 93 % of control | dose: 200.0 mg/kg/injection, schedule: Q01DX009 (ip), vehicle: saline 100 % of control | dose: 200.0 mg/kg/injection, schedule: Q04DX003 (ip), vehicle: saline 100 % of control | dose: 400.0 mg/kg/injection, schedule: Q01DX009 (ip), vehicle: saline 98 % of control | dose: 400.0 mg/kg/injection, schedule: Q04DX003 (ip), vehicle: saline 102 % of control

FC(F)(F)c1cc(Cl)ccc1Cl
inactive: dose: 80.0 mg/kg/injection, schedule: Q01DX009 (ip), vehicle: Klucel (hydroxypropylcellulose) (HPC) 100 % of control | [5] 101 % of control and 106 % of control | dose: 160.0 mg/kg/injection, schedule: Q01DX009 (ip), vehicle: Klucel (hydroxypropylcellulose) (HPC) 102 % of control | [6] 92 % of control and 104 % of control | dose: 320.0 mg/kg/injection, schedule: Q01DX009 (ip), vehicle: Klucel (hydroxypropylcellulose) (HPC) 111 % of control | [10] 99 % of control and 102 % of control

CC(=O)OCC1=C(C(=O)O)N2C(=O)C(NC(=O)CSc3ccncc3)C2SC1 (stereo not drawn)
inactive: [7] 103 % of control | [8] 114 % of control | [9] 107 % of control

CCOC(=O)c1ccc(NC(=S)NC(Cc2ccccc2)c2ccccc2)cc1 (stereo not drawn)
inactive: dose: 100.0 mg/kg/injection, schedule: Q04DX002 (ip), vehicle: saline with Tween-80 98 % of control | dose: 200.0 mg/kg/injection, schedule: Q04DX002 (ip), vehicle: saline with Tween-80 95 % of control | [4] 95 % of control
